Measurements published in ChEMBL document CHEMBL1201862, “PubChem BioAssay data set” (2004).
Active and inactive are the calls of the source.

What was measured:
HEK293 [1] = assay: optical interference in Abeta FP readout, dose response, artefact control for IDE activator project, biochemical, fluorescence polarization (AID 588442); format: functional, cell-based; conditions: Homo sapiens
HEK293 [2] = assay: membrane integrity loss in HEK cells – cell-based, fluorescence, cytotoxicity control for IDE activator project, dose response (AID 588440); format: functional; conditions: Homo sapiens;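 further: cytotoxicity by LDH release measuring loss of membrane integrity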
Insulin-degrading enzyme [3] = biological target: T1, Insulin-degrading enzyme (Homo sapiens, UniProt P14735); assay: cellular IDE activation of Abeta substrate cleavage – fluorescence polarization, HEK cells, dose response (AID 588439); format: functional, cell-based
T1 sequence (P14735 whole entry): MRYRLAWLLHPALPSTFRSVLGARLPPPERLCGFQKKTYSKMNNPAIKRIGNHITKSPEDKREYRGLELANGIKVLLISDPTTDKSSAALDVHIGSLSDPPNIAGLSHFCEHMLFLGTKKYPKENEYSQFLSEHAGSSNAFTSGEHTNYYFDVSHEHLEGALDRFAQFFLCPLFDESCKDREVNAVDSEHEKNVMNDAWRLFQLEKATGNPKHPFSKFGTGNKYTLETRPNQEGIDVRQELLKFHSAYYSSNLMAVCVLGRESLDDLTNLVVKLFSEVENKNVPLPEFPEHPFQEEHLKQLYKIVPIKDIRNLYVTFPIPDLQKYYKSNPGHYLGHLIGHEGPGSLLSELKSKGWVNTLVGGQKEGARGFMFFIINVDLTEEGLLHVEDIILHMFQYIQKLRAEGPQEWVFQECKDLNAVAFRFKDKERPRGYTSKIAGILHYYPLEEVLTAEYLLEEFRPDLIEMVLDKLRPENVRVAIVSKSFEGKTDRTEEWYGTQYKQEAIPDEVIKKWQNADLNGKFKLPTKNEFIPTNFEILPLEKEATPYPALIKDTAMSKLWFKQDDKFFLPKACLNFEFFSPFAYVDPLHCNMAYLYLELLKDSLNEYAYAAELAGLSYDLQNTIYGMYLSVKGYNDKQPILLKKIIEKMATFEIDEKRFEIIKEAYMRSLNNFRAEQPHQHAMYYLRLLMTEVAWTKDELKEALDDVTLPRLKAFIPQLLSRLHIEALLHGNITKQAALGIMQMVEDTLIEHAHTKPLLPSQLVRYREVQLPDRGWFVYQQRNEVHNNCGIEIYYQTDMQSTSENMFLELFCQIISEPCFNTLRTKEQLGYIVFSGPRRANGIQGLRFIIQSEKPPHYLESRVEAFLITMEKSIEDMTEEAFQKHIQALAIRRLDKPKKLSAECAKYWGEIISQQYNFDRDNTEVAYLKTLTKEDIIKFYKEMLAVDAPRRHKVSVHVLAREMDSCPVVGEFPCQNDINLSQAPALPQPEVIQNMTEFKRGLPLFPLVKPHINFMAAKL

Insulin-degrading enzyme [4] = biological target: T1, Insulin-degrading enzyme; assay: recombinant IDE activation, cell-free – biochemical, fluorescence polarization, counter-screen for IDE activator project, dose response (AID 588681)
[5] = biological target: T2, DNA repair protein RAD52 homolog (Homo sapiens, UniProt P43351); format: functional, biochemical
T2 sequence (P43351 whole entry): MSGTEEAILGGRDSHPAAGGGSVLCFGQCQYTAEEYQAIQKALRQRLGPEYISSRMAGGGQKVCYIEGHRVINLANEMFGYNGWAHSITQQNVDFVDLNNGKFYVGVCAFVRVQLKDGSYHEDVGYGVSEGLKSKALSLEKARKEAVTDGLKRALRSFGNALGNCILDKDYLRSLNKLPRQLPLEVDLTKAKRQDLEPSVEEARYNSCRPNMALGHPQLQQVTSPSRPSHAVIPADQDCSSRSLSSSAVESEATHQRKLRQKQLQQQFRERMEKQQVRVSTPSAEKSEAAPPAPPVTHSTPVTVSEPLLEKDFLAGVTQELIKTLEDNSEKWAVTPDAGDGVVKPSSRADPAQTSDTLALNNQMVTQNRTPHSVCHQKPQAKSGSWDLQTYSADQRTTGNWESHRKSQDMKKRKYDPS

INS1 = assay: suppression of NO production in INS-1E cells – cell-based, Griess absorbance, dry powder, set 2, dose response (AID 488868); format: functional; conditions: Rattus norvegicus
[6] = FACS-based assay to assess parasite growth inhibition 48 hr Measured in Cell-Based System Using Flow Cytometry - 2126-03_Inhibitor_Dose_DryPowder_Activity. [Related pubchem assays (depositor defined):AID488774]; format: functional; conditions: Homo sapiens
[7] = potency of ADAM10 substrate cleavage blockers – biochemical, QFRET, dose response (AID 743254);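 further: ADAM10 enzyme with the DM2 quenched FRET peptide as substrate; EDANS fluorescence gain as the protease cuts the substrate; inhibitor potency against ADAM10 proteolytic activity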
Erythrocyte = assay: FACS-based assay to assess parasite growth inhibition 96 hr Measured in Cell-Based System Using Flow Cytometry - 2126-05_Inhibitor_Dose_DryPowder_Activity. [Related pubchem assays (depositor defined):AID488774]; format: functional; conditions: Homo sapiens
[8] = biological target: Disintegrin and metalloproteinase domain-containing protein 17 (Homo sapiens, UniProt P78536); assay: inhibition of ADAM17 substrate cleavage – biochemical, quenched FRET substrate, counter-screen for ADAM10 exosite inhibitor project, dose response (AID 743253)
Sequence of Disintegrin and metalloproteinase domain-containing protein 17 (P78536 whole entry, the tested form may be a part): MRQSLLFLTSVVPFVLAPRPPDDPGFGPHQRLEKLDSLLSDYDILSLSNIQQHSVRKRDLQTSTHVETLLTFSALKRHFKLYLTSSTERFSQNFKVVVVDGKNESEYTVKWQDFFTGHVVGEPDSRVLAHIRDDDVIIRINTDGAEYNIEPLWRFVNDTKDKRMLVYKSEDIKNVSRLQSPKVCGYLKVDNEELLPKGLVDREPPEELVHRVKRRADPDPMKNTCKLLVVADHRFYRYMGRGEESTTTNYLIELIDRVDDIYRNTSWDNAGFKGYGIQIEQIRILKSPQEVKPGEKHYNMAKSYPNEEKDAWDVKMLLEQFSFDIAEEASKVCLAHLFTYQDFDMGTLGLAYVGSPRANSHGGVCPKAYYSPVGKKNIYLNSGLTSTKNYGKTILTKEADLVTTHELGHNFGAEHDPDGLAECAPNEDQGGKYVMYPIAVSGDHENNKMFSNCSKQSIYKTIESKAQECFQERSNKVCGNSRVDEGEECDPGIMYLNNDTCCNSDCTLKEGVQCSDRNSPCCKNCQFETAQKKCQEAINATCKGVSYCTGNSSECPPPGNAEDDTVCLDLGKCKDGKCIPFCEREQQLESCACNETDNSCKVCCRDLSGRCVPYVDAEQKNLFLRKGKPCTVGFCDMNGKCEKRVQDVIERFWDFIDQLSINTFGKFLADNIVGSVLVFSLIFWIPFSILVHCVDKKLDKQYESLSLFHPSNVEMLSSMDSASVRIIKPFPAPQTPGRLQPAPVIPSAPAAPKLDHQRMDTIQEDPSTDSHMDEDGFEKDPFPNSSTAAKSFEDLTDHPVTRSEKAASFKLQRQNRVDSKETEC

[9] = A cell-based HTS for delayed death inhibitors of the malarial parasite plastid Measured in Microorganism System Using Plate Reader - 2126-01_Inhibitor_Dose_DryPowder_Activity.; format: functional, organism-based
[10] = A cell-based HTS for delayed death inhibitors of the malarial parasite plastid Measured in Microorganism System Using Plate Reader - 2126-02_Inhibitor_Dose_DryPowder_Activity.; format: functional, organism-based
[11] = biological target: T3, Sentrin-specific protease 8 (Homo sapiens, UniProt Q96LD8); assay: inhibition of human SENP8 cleavage activity – biochemical, luminescence, SAR follow-up (AID 504501); format: functional
T3 sequence (Q96LD8 whole entry): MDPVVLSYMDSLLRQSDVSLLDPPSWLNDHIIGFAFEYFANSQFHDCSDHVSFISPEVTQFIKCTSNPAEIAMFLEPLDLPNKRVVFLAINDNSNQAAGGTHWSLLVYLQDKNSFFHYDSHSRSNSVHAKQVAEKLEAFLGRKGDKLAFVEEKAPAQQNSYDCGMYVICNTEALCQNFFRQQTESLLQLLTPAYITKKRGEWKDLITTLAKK

[12] = biological target: T4, Sentrin-specific protease 6 (Homo sapiens, UniProt Q9GZR1); assay: SAR Analysis of small molecule inhibitors of Sentrin-specific protease 6 (SENP6) using a Luminescent assay. [Related pubchem assays (depositor defined):AID2582, AID2599]; format: functional
T4 sequence (Q9GZR1 whole entry): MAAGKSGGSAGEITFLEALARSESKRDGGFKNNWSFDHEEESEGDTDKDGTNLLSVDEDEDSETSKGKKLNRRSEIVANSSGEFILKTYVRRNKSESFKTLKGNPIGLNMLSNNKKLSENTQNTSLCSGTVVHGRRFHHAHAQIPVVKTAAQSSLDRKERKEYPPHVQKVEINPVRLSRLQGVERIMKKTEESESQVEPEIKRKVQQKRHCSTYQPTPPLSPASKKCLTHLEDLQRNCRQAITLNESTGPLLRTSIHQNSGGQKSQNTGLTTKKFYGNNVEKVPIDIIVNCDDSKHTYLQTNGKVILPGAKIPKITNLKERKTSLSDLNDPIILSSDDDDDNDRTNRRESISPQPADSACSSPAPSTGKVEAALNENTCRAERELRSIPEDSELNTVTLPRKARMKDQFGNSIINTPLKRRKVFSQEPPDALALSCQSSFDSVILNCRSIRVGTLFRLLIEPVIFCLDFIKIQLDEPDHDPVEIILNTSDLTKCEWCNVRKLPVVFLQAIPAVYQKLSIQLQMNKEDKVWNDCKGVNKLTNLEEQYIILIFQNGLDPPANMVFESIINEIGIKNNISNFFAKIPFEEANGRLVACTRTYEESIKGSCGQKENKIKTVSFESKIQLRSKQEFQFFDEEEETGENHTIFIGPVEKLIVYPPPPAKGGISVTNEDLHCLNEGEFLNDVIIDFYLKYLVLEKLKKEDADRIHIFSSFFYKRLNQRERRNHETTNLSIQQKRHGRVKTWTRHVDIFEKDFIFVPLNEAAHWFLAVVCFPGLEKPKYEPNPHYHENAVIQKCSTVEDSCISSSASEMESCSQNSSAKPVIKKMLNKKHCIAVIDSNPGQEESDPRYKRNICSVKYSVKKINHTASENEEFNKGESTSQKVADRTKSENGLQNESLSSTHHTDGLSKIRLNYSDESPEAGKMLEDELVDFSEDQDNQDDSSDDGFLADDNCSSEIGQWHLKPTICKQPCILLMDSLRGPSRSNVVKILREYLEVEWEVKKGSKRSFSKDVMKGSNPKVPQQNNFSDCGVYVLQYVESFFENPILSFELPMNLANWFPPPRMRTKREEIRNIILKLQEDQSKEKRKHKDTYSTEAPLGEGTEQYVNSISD

[13] = biological target: T4, Sentrin-specific protease 6; assay: inhibition of human SENP6 catalytic domain – biochemical, luminescence, set 2, SAR follow-up (AID 588598); format: functional
Caspase-3 [14] = biological target: T5, Caspase-3 (Homo sapiens, UniProt P42574); assay: SAR Analysis of small molecule inhibitors of Sentrin-specific proteases (SENPs) using a Caspase-3 Selectivity assay. [Related pubchem assays (depositor defined):AID2540, AID2599, AID434973, AID489001]; format: functional
T5 sequence (P42574 whole entry): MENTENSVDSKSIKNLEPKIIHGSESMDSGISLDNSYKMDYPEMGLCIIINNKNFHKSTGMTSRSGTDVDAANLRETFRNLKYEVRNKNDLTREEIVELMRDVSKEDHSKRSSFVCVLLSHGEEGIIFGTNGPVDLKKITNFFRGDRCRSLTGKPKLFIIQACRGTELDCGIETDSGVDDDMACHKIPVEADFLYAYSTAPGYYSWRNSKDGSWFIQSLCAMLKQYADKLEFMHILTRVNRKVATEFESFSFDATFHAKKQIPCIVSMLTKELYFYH

[15] = biological target: T6, Sentrin-specific protease 7 (Homo sapiens, UniProt Q9BQF6); assay: inhibition of human SENP7 cleavage activity – biochemical, luminescence, set 2, SAR follow-up (AID 588600); format: functional
T6 sequence (Q9BQF6 whole entry): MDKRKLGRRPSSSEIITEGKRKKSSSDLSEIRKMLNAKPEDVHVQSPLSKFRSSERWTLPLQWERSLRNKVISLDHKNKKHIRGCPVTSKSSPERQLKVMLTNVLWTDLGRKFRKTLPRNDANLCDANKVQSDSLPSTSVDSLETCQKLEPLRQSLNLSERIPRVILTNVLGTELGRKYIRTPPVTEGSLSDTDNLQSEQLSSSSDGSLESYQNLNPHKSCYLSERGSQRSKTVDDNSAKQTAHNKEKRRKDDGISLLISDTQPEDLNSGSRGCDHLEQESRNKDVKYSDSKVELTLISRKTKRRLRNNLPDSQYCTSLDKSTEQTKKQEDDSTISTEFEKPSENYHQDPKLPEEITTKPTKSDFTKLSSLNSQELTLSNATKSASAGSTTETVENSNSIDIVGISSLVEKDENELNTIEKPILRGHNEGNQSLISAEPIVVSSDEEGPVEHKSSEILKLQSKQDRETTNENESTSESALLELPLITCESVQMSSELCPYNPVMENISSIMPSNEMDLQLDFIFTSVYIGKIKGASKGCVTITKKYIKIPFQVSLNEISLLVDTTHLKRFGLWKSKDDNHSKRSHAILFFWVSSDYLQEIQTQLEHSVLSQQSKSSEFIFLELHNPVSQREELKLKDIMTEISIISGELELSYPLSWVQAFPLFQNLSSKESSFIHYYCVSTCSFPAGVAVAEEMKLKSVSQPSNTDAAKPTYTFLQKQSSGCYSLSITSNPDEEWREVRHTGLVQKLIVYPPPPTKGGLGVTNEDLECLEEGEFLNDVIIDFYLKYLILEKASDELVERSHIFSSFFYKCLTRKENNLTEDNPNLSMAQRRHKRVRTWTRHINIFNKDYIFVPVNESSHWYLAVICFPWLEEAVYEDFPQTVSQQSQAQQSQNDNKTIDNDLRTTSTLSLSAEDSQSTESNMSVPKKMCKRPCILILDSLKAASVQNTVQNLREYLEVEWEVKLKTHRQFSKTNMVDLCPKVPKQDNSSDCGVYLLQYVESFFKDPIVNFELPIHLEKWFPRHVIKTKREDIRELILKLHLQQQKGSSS

Caspase-3 [16] = biological target: T5, Caspase-3; assay: inhibition of recombinant caspase-3 activity – biochemical, luminescence, set 2, selectivity assay for SENP protease inhibitor project, SAR follow-up (AID 588599); format: functional
[17] = biological target: T6, Sentrin-specific protease 7; assay: inhibition of human SENP7 cleavage activity – biochemical, luminescence, SAR follow-up (AID 504497); format: functional
[18] = biological target: T3, Sentrin-specific protease 8; assay: inhibition of sentrin protease 8 – biochemical, luminescence, set 2, SAR follow-up (AID 588601); format: functional

O=c1c2c(-c3ccccc3)csc2nc2c3ccccc3c(NCCN3CCOCC3)nn12
EC50 (HEK293 [1]): > 55900 nM (inactive) | IC50 (HEK293 [2]): 10600 nM (inactive) | EC50 (Insulin-degrading enzyme [3]): > 54700 nM (inactive) | EC50 (Insulin-degrading enzyme [4]): 25200 nM (inactive) | AC50 [5]: 1580 nM (active)

COc1ccc(S(=O)(=O)N(C)C[C@@H]2Oc3ccc(NC(=O)Nc4cccc5ccccc45)cc3C(=O)N([C@@H](C)CO)C[C@H]2C)cc1
AC50 (INS1): 43800 nM (active)

C[C@@H]1CN([C@@H](C)COC(=O)C(C)(C)C)C(=O)c2cc(NC(=O)Nc3ccccc3)ccc2O[C@@H](C)CCCCO[C@H]1CN(C)S(=O)(=O)c1ccc(F)cc1
AC50 [6]: 4.25 nM (active) | IC50 [7]: > 69500 nM (inactive) | AC50 (Erythrocyte): 5 nM (active) | IC50 [8]: > 69500 nM (inactive) | AC50 [9]: 5.39 nM (active) | AC50 [10]: 8.77 nM (active)

O=C(Nc1nc2ccccc2s1)c1sccc1Cl
IC50 [11]: 710 nM (active) | IC50 [12]: 750 nM (active) | IC50 [13]: 1190 nM (active) | IC50 (Caspase-3 [14]): 540 nM (active) | IC50 [15]: 1210 nM (active) | IC50 (Caspase-3 [16]): 954 nM (active) | IC50 [17]: 890 nM (active) | IC50 [18]: 1220 nM (active)
